ChEMBL document CHEMBL4138296, “Nonacidic Chemotype Possessing N-Acylated Piperidine Moiety as Potent Farnesoid X Receptor (FXR) Antagonists” (ACS Med Chem Lett, 2018)
Calls of active or inactive are those of the source. The rule behind the calls is not given here.

Legend:
Bile acid receptor [1] = biological target: T1, Bile acid receptor (Homo sapiens, UniProt Q96RI1); assay: Antagonist activity at GST-tagged FXR LBD (unknown origin) assessed as inhibition of GW4064-induced fluorecein-labeled SRC2-2 coactivator recruitment by Lanthascreen TR-FRET assay
T1 sequence (Q96RI1 whole entry): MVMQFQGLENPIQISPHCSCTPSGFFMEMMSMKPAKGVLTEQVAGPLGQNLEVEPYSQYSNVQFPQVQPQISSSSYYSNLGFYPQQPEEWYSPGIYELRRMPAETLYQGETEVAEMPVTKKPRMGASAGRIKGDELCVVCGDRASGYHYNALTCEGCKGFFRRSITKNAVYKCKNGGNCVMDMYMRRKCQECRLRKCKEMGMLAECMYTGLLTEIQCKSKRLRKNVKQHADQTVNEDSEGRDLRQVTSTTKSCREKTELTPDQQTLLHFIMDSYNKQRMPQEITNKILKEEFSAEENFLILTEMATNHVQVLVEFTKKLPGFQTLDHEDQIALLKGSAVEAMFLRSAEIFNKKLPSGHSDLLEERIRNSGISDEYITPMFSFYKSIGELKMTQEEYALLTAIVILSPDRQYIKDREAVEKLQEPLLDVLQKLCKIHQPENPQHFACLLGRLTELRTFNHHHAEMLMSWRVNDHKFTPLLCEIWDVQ

Bile acid receptor [2] = biological target: T1, Bile acid receptor; assay: Antagonist activity at human FXR expressed in Hep3B cells assessed as inhibition of CDCA-induced FXR response element driven luciferase activity after 24 hrs; assay type: cell-based
Hep 3B2 = assay: Cytotoxicity against human Hep3B cells assessed as reduction in cell viability by MTT assay; assay type: functional, cell-based
3T3-L1 [3] = assay: Antiadipogenic activity in mouse 3T3L1 cells assessed as reduction in intracellular lipid droplets at 10 uM after 6 days by Oil Red O staining based assay; assay type: functional, cell-based
3T3-L1 [4] = assay: Antiadipogenic activity in mouse 3T3L1 cells assessed as inhibition of CDCA-induced intracellular lipid droplets after 6 days by Oil Red O staining based assay; assay type: functional, cell-based

IC50 (Bile acid receptor [1]) [nM] | IC50 (Bile acid receptor [2]) [nM] | Structure (SMILES) | IC50 (Hep 3B2) [nM] | Activity (3T3-L1 [3]) | inhibition (3T3-L1 [4])
130 | 0.05 | CC(C)C(=O)N1CCC(C[C@@H](c2nc3ccc(Cl)cc3n2C)N2C(=O)CN(c3ccc(Oc4ccccc4)cc3)C2=O)CC1 | > 100000 | – | –
30 | 0.006 | Cc1ccc2nc([C@H](CC3CCN(C(=O)C4CCCC4)CC3)N3C(=O)CN(c4ccc(Oc5ccccc5)cc4)C3=O)n(C)c2c1 | > 100000 | – | –
64000 | 4510 | Cc1ccc2nc([C@H](CC3CCNCC3)N3C(=O)CN(c4ccc(Oc5ccccc5)cc4)C3=O)n(C)c2c1 | 16700 | – | –
740 | 0.002 | CC(=O)N1CCC(C[C@@H](c2nc3ccccc3n2C)N2C(=O)CN(c3ccc(Oc4ccccc4)cc3)C2=O)CC1 | 32100 | – | –
– | – | C/C=C1/C(=O)C[C@H]2[C@@H]3CCC4=CC(=O)CC[C@]4(C)[C@H]3CC[C@]12C | – | Active | Dose-dependent effect
16400 | 17400 | Cc1ccc2nc([C@H](CC3CCN(CC(C)C)CC3)N3C(=O)CN(c4ccc(Oc5ccccc5)cc4)C3=O)n(C)c2c1 | 6900 | – | –
340 | 0.06 | CC(C)C(=O)N1CCC(C[C@@H](c2nc3cc(F)ccc3n2C)N2C(=O)CN(c3ccc(Oc4ccccc4)cc3)C2=O)CC1 | > 100000 | – | –
3500 | 0.8 | CC(=O)N1CCC(C[C@@H](c2nc3ccc(Cl)cc3n2C)N2C(=O)CN(c3ccc(Oc4ccccc4)cc3)C2=O)CC1 | > 100000 | – | –
1300 | 0.2 | CC(=O)N1CCC(C[C@@H](c2nc3ccc(C)cc3n2C)N2C(=O)CN(c3ccc(Oc4ccccc4)cc3)C2=O)CC1 | 17200 | – | –
8300 | 1 | CC(=O)N1CCC(C[C@@H](c2nc3cc(F)ccc3n2C)N2C(=O)CN(c3ccc(Oc4ccccc4)cc3)C2=O)CC1 | > 100000 | – | –
38 | < 0.001 | CC(C)C(=O)N1CCC(C[C@@H](c2nc3ccccc3n2C)N2C(=O)CN(c3ccc(Oc4ccccc4)cc3)C2=O)CC1 | > 100000 | – | –
